Experimental data: PMC6208970, “Linking cytochrome P450 enzymes from Mycobacterium tuberculosis to their cognate ferredoxin partners” (Applied Microbiology and Biotechnology, 2018)

Experiments:
CYP125A1 = target: T1, CYP125A1 (Mycobacterium tuberculosis, UniProt P9WPP1); experiment: reconstituted turnover, GC-MS detection of 27-hydroxycholesterol; type: biochemical; details: 0.5 μM CYP, 50 μM cholesterol in methyl-β-cyclodextrin; FdrA or FprA with FdxD or FdxE; pH 7.4; 37 °C
T1 construct: gene cyp125

CYP142A1 = target: T2, CYP142A1 (Mycobacterium tuberculosis, UniProt P9WPL5); type: biochemical
T2 construct: gene cyp142

CYP124A1 = target: T3, CYP124A1 (Mycobacterium tuberculosis, UniProt P9WPP3); experiment: reconstituted turnover, GC-MS detection of 27-hydroxycholesterol; type: biochemical; details: 0.5 μM CYP, 50 μM cholesterol in methyl-β-cyclodextrin; FdrA or FprA with FdxD or FdxE; pH 7.4; 37 °C
T3 construct: gene cyp124

[1] = target: CYP143A1 (Mycobacterium tuberculosis) (UniProt P9WPL2); details: cited from earlier work
CYP143A1 (Mycobacterium tuberculosis), sequence (P9WPL2 whole entry): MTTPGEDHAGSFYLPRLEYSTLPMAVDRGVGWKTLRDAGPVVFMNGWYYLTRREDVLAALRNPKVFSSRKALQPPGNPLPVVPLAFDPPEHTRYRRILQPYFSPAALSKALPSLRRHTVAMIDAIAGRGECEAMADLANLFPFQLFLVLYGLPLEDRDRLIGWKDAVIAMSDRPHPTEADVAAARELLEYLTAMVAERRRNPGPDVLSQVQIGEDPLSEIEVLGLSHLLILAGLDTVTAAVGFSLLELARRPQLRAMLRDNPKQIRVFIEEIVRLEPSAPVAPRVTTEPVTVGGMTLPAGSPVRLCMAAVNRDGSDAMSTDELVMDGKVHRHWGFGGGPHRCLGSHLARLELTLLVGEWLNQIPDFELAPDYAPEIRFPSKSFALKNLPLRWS

T3 sequence (P9WPP3 whole entry): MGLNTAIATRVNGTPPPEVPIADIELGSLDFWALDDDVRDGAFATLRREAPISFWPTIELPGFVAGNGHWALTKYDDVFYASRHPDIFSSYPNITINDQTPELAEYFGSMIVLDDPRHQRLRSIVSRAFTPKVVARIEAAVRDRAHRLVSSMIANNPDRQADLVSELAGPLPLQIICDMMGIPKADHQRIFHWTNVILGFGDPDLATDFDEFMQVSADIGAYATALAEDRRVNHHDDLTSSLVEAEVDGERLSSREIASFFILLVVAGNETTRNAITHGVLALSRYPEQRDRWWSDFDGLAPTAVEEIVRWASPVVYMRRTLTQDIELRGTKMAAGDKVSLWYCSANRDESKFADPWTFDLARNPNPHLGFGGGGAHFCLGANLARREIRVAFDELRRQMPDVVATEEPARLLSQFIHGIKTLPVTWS
T2 sequence (P9WPL5 whole entry): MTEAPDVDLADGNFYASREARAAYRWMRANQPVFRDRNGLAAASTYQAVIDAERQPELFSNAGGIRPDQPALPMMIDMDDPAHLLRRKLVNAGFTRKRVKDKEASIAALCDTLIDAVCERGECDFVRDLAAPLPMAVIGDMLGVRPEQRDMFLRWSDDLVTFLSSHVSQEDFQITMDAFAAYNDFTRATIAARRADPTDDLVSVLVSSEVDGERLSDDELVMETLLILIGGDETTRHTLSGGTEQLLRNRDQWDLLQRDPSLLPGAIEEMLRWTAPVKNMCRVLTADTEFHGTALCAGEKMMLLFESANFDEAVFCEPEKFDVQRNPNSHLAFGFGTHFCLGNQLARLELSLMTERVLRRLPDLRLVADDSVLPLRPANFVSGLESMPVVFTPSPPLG
ferredoxin Rv1786, sequence (O53937 whole entry): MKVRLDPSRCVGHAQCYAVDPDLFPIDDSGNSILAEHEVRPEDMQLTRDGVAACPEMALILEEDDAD
T1 sequence (P9WPP1 whole entry): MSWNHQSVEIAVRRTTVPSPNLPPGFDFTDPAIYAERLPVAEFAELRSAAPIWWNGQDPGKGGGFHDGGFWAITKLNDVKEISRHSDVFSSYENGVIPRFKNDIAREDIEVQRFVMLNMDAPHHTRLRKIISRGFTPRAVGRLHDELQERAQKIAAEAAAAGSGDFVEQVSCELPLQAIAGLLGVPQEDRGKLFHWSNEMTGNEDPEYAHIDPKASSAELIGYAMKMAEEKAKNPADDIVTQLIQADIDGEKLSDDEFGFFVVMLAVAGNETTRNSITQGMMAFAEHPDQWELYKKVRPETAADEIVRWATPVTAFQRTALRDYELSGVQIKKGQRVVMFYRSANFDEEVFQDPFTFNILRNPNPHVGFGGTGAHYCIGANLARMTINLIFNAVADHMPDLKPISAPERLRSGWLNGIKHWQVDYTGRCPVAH

Compound | reconstituted turnover, GC-MS detection of 27-hydroxycholesterol (CYP125A1) | reconstituted turnover, GC-MS detection of 27-hydroxycholesterol (CYP142A1) | reconstituted turnover, GC-MS detection of 27-hydroxycholesterol (CYP124A1) | Kd [1]
CC(C)CCC[C@@H](C)[C@H]1CC[C@H]2[C@@H]3CC=C4C[C@@H](O)CC[C@]4(C)[C@H]3CC[C@]12C [cholesterol] | only FdxD and FdxE were able to support cholesterol conversion | CYP142A1 was found to be the most efficient in cholesterol conversion | only FdxD and FdxE were able to support cholesterol conversion | 
ferredoxin Rv1786 (from UniProt O53937) |  |  |  | 337 nM
